PMC4048129 (Chemistry and physics of lipids, 2013)
≈ marks a conversion by molar mass, not a printed value. Like-named read-outs stand apart in the source and are kept apart here.

How the values were obtained:
B. cereus (ATCC 10876) = assay: Microdilution susceptibility testing; conditions: for IC50: ATCC10876, read-out: IC50 ± SEM
MRSA ATCC 43300 = assay: Microdilution susceptibility testing; conditions: for IC50: read-out: IC50 ± SEM
[1] = system: P. aeruginosa (ATCC 27853); assay: Microdilution susceptibility testing; conditions: for IC50: ATCC27853, read-out: IC50 ± SEM
[2] = system: Mycobacterium tuberculosis; conditions: ref Carballeira et al., 2006; cited from earlier work
S. aureus (ATCC 29213) = assay: Microdilution susceptibility testing; conditions: for IC50: ATCC29213, read-out: IC50 ± SEM
[3] = Cytotoxicity testing, MTT assay; type: cell-based; conditions: human
CIMRSA 1 [4] = assay: Microdilution susceptibility testing; conditions: for IC50: read-out: IC50 ± SEM
CIMRSA 1 [5] = assay: Determination of bactericidal concentration; type: cell-based, Clinical isolate of methicillin-resistant S. aureus; conditions: CIMRSA 1 and 2 (both strains, text summary)
[6] = system: K. pneumoniae (ATCC 13883); assay: Microdilution susceptibility testing; conditions: for IC50: ATCC13883, read-out: IC50 ± SEM
CIMRSA 2 = assay: Microdilution susceptibility testing; conditions: for IC50: read-out: IC50 ± SEM
[7] = system: S. saprophyticus (ATCC 15305); assay: Microdilution susceptibility testing; conditions: for IC50: ATCC15305, read-out: IC50 ± SEM
E. coli (ATCC 25922) = assay: Microdilution susceptibility testing
[8] = system: Gram-positive and Gram-negative bacteria; assay: Antibacterial activity against the bacteria of Table 1; conditions: for antibacterial activity: all bacteria presented in Table 1, result in words
[9] = system: Neisseria gonorrhoeae, Neisseria meningitidis, and Bacteroides fragilis; conditions: N. gonorrhoeae, B. fragilis, ref Konthikamee et al., 1982; cited from earlier work
[10] = system: Leishmania donovani amastigotes; conditions: cited from earlier work
[11] = target: L. donovani DNA topoisomerase IB enzyme (LdTopIB); conditions: ref Carballeira et al., 2012; cited from earlier work
[12] = system: Peripheral blood mononuclear cells (PBMC); assay: Cytotoxicity testing, MTT assay; type: cell-based
[13] = Staphylococcus aureus, ATCC43300|MRSA
[14] = Pseudomonas aeruginosa, ATCC27853
[15] = Staphylococcus aureus, ATCC29213
[16] = peripheral blood mononuclear cells (PBMC)
[17] = Klebsiella pneumoniae, ATCC13883
[18] = Staphylococcus saprophyticus, ATCC15305, S. saprophyticus ATCC 15305, 37°C, 18-24 h
[19] = B. cereus ATCC 10876, 37°C, 18-24 h
[20] = P. aeruginosa ATCC 27853, 37°C, 18-24 h
[21] = S. aureus ATCC 29213, 37°C, 18-24 h
[22] = K. pneumoniae ATCC 13883, 37°C, 18-24 h
[23] = S. saprophyticus ATCC 15305, 37°C, 18-24 h
[24] = E. coli ATCC 25922, 37°C, 18-24 h

Structure (SMILES) | MIC (B. cereus (ATCC 10876); Bacillus cereus, ATCC10876) [µg/mL] | IC50 (B. cereus (ATCC 10876); Bacillus cereus) [µg/mL] | MIC (MRSA ATCC 43300; [13]) [µg/mL] | IC50 (MRSA ATCC 43300; [13]) [µg/mL] | MIC [1, 14] [µg/mL] | MIC (S. aureus (ATCC 29213); [15]) [µg/mL] | IC50 (S. aureus (ATCC 29213); Staphylococcus aureus) [µg/mL] | MIC (CIMRSA 1 [4]; Staphylococcus aureus) [µg/mL] | IC50 (CIMRSA 1 [4]; Staphylococcus aureus) [µg/mL] | bactericidal concentration (CIMRSA 1 [5]) [µg/mL] | MIC [6, 17] [µg/mL] | IC50 ([6]; Klebsiella pneumoniae) [µg/mL] | MIC (CIMRSA 2; Staphylococcus aureus) [µg/mL] | IC50 (CIMRSA 2; Staphylococcus aureus) [µg/mL] | MIC [7, 18] [µg/mL] | IC50 ([7]; Staphylococcus saprophyticus) [µg/mL] | MIC (E. coli (ATCC 25922); Escherichia coli, ATCC25922) [µg/mL] | antibacterial activity [8] | other results
CCCCCCCCCC#CCCC#CC(=O)O [2,6-HDA, 2,6-hexadecadiynoic acid] | 62.5 (≈ 252 µM) | 46.1 (≈ 186 µM) | 62.5 (≈ 252 µM) | 22.3 (≈ 89.8 µM) | 250 (≈ 1010 µM) | 31.3 (≈ 126 µM) | 14.1 (≈ 56.8 µM) | 62.5 (≈ 252 µM) | 39.5 (≈ 159 µM) | 125 to 500 | 62.5 (≈ 252 µM) | 31.2 (≈ 126 µM) | 62.5 (≈ 252 µM) | 22.4 (≈ 90.2 µM) | 62.5 (≈ 252 µM) | 21.5 (≈ 86.6 µM) | > 1000 |  | IC50 ([1]; Pseudomonas aeruginosa): 132 µg/mL (≈ 533 µM); minimum inhibitory concentrations (MICs) [2]: 141 to 145 µM; IC50 at 3 days [3, 16]: 63.4 ± 0.3 µg/mL (≈ 255 µM)
CCCCCCCCCCCCCCCCCC#CC(=O)O [Compound 2-ICA, 2-icosanoic acid] |  |  |  |  |  |  |  |  |  |  |  |  |  |  |  |  |  | did not show antibacterial activity | MIC (B. cereus (ATCC 10876); [19]): >1,000 μg/mL; MIC [1, 20]: >1,000 μg/mL; MIC (S. aureus (ATCC 29213); [21]): >1,000 μg/mL; MIC [6, 22]: >1,000 μg/mL; MIC [7, 23]: >1,000 μg/mL; MIC (E. coli (ATCC 25922); [24]): >1,000 μg/mL
CCCCCCCCCCCCCCCC#CCO [Compound 2-ODOH, 2-Octadecyn-1-ol] | > 1000 |  |  |  | > 1000 | > 1000 |  |  |  |  | > 1000 |  |  |  | > 1000 |  | > 1000 |  | 
CCCCCCCCCCCCCC#CCOC1CCCCO1 (stereo not shown) [Compound 2-HDOTHP, 2-(2-Hexadecynyloxy)-tetrahydro-2H-pyran] | > 1000 |  |  |  | > 1000 | > 1000 |  |  |  |  | > 1000 |  |  |  | > 1000 |  | > 1000 | inactive | 
COc1cccc(OC)c1C(=O)N[C@@H]1C(=O)N2[C@@H]1SC(C)(C)[C@@H]2C(=O)O [Methicillin, reference compound] | 62.5 (≈ 164 µM) | 38.2 (≈ 100 µM) | 1.95 (≈ 5.13 µM) | 0.98 (≈ 2.58 µM) | > 1000 | 0.06 (≈ 0.158 µM) | 0.03 (≈ 0.0789 µM) | 7.8 (≈ 20.5 µM) | 2.2 (≈ 5.78 µM) |  | 0.98 (≈ 2.58 µM) | 0.36 (≈ 0.946 µM) | 31.3 (≈ 82.3 µM) | 11.8 (≈ 31 µM) | 0.12 (≈ 0.315 µM) | 0.06 (≈ 0.158 µM) | > 1000 |  | IC50 at 3 days [3]: 86.1 ± 0.5 µg/mL (≈ 226 µM)
CCCCCCCCCCCCCCCC#CCOC1CCCCO1 (stereo not shown) [Compound 2-ODOTHP, 2-(2-Octadecynyloxy)-tetrahydro-2H-pyran] | > 1000 |  |  |  | > 1000 | > 1000 |  |  |  |  | > 1000 |  |  |  | > 1000 |  | > 1000 | inactive | 
CCCCCCCCCCCCCC#CC(=O)O [Compound 2-HDA, 2-hexadecynoic acid] | 31.3 (≈ 124 µM) | 17.2 (≈ 68.1 µM) | 15.6 (≈ 61.8 µM) | 9.4 (≈ 37.2 µM) | 125 (≈ 495 µM) | 15.6 (≈ 61.8 µM) | 6.2 (≈ 24.6 µM) | 3.9 (≈ 15.5 µM) | 3.3 (≈ 13.1 µM) | 7.8 | 7.8 (≈ 30.9 µM) | 6.1 (≈ 24.2 µM) | 3.9 (≈ 15.5 µM) | 3.4 (≈ 13.5 µM) | 15.5 (≈ 61.4 µM) | 8.8 (≈ 34.9 µM) | > 1000 |  | IC50 ([1]; Pseudomonas aeruginosa): 87.8 µg/mL (≈ 348 µM); minimum inhibitory concentrations (MICs) [2]: 141 to 145 µM; active concentrations [9]: 5.0 to 21.4 µM; IC50 at 3 days [3, 16]: 57.2 ± 0.1 µg/mL (≈ 227 µM); IC50 ([10]; L. donovani amastigotes, ref Tasdemir et al., 2010): 17.8 µM; MIC (CIMRSA 1 [4]; Staphylococcus aureus, MRSA): 3.9 µg/mL (≈ 15.5 µM); MIC ([8]; read-out: MICs): 7.8 to 125 µg/mL (≈ 30.9 to 495 µM); MIC [7, 23]: 15.6 µg/mL (≈ 61.8 µM); IC50 [11]: 28.7 µM
O=C(O)c1cn(C2CC2)c2cc(N3CCNCC3)c(F)cc2c1=O [Ciprofloxacin, reference compound] | 0.05 (≈ 0.151 µM) | 0.03 (≈ 0.0905 µM) | 0.5 (≈ 1.51 µM) | 0.2 (≈ 0.604 µM) | 0.24 (≈ 0.724 µM) | 0.25 (≈ 0.754 µM) | 0.14 (≈ 0.423 µM) |  |  |  | 0.24 (≈ 0.724 µM) | 0.13 (≈ 0.392 µM) |  |  | < 0.002 |  | < 0.008 |  | IC50 ([1]; Pseudomonas aeruginosa): 0.11 µg/mL (≈ 0.332 µM); IC50 at 3 days [3]: 66.4 ± 0.6 µg/mL (≈ 200 µM)
CCCCCCCCCCCCCCCC#CC(=O)O [Compound 2-ODA, 2-Octadecynoic acid] | 15.6 (≈ 55.6 µM) | 11.9 (≈ 42.4 µM) | 7.8 (≈ 27.8 µM) | 5.5 (≈ 19.6 µM) | > 1000 | 15.6 (≈ 55.6 µM) | 8.1 (≈ 28.9 µM) | 7.8 (≈ 27.8 µM) | 4.3 (≈ 15.3 µM) | 15.6 | 7.8 (≈ 27.8 µM) | 5.6 (≈ 20 µM) | 7.8 (≈ 27.8 µM) | 5.5 (≈ 19.6 µM) | 125 (≈ 446 µM) | 68.8 (≈ 245 µM) | > 1000 |  | IC50 at 3 days [3, 16]: 58.9 ± 0.1 µg/mL (≈ 210 µM); IC50 ([10]; L. donovani, ref Carballeira et al., 2012): 11 µM; IC50 [11]: 5.3 µM
CCCCCCC#CCCCCCC#CC(=O)O [2,9-HDA] |  |  |  |  |  |  |  |  |  | 125 to 500 |  |  |  |  |  |  |  |  | IC50 ± SEM (B. cereus (ATCC 10876); [19]): 34.2 ± 0.3 µg/mL (≈ 138 µM); MIC (B. cereus (ATCC 10876); [19]): 62.5 µg/mL (≈ 252 µM); IC50 ± SEM (MRSA ATCC 43300; MRSA ATCC 43300): 203.5 ± 2.6 µg/mL (≈ 819 µM); MIC (MRSA ATCC 43300; MRSA ATCC 43300): 500 µg/mL (≈ 2010 µM); MIC [1, 20]: >1,000 μg/mL; IC50 ± SEM (S. aureus (ATCC 29213); [21]): 94.0 ± 0.9 µg/mL (≈ 378 µM); MIC (S. aureus (ATCC 29213); [21]): 250 µg/mL (≈ 1010 µM); PBMC cytotoxicity, IC50 ± SEM [12]: 93.3 ± 0.4 µg/mL; IC50 ± SEM (CIMRSA 1 [4]; CIMRSA 1): 102.1 ± 2.4 µg/mL (≈ 411 µM); MIC (CIMRSA 1 [4]; CIMRSA 1): 250 µg/mL (≈ 1010 µM); IC50 ± SEM [6, 22]: 135.4 ± 0.7 µg/mL (≈ 545 µM); MIC [6, 22]: 250 µg/mL (≈ 1010 µM); IC50 ± SEM (CIMRSA 2; CIMRSA 2): 76.0 ± 2.4 µg/mL (≈ 306 µM); MIC (CIMRSA 2; CIMRSA 2): 250 µg/mL (≈ 1010 µM); IC50 ± SEM [7, 23]: 61.5 ± 1.2 µg/mL (≈ 248 µM); MIC [7, 23]: 125 µg/mL (≈ 503 µM); MIC (E. coli (ATCC 25922); [24]): >1,000 μg/mL
CCCCCCCCCCCCCC#CCO [Compound 2-HDOH, 2-Hexadecyn-1-ol] | > 1000 |  |  |  | > 1000 | > 1000 |  |  |  |  | > 1000 |  |  |  | > 1000 |  | > 1000 | not active | 
